Experimental data taken from patent US9040567B2, “BAX agonist, compositions, and methods related thereto” (Emory University, priority 2011, dated 2015).
Where two headings read alike, the source gives them in different places.

Assays:
[1] = system: A549 human lung cancer cells; experiment: sulforhodamine B (SRB) assay, surviving cell fraction; assay type: cell-based
[2] = system: A549 lung cancer xenografts; experiment: TUNEL assay of apoptosis in xenograft tumor tissues; conditions: 50 mg/kg for 24 h
Description: Apoptosis in tumor tissues was measured by TUNEL assay.
Apoptosis in tumor tissues was analyzed by TUNEL assay.

A549 cells [3] = system: A549 cells
[4] = system: A549 lung cancer xenografts; experiment: A549 subcutaneous lung tumor xenografts in nude mice
Description: At day 6, tumors were removed and photographed. […] Tumor volume was estimated by caliper measurements, data are mean±s.e.m. […] Apoptosis in tumor tissues was measured by TUNEL assay.

[5] = system: primary normal small airway epithelial cells (SAEC); experiment: apoptosis by ApoAlert Annexin-V kit in normal small airway epithelial cells; conditions: 1 μM, 48 h
Description: (§3) (B) H1299, A549 or SAEC cells were treated with various types of small molecules (1 μM) for 48 h. Cell viability was assessed using ApoAlert Annexin-V kit. DMSO or cisplatin (40 μM) was used as a negative or positive control, respectively.

H1299 cells = experiment: apoptosis by ApoAlert Annexin-V kit in H1299 cells; conditions: 1 μM, 48 h
Description: as §3

A549 cells [6] = experiment: apoptosis by ApoAlert Annexin-V kit in A549 cells; conditions: 1 μM, 48 h
Description: as §3

BAX Ser184 = experiment: BAX phosphorylation in H157 cells transfected with WT, S184A or S184E BAX; assay type: cell-based, human; conditions: H157 cells expressing WT, 60 min
Description: (§1) (A) A549 cells expressing endogenous BAX were metabolically labeled with ^32P-orthophosphoric acid and treated with nicotine for 60 min. BAX was immunoprecipitated by using an agarose-conjugated BAX antibody. Phosphorylation of BAX was determined by autoradiography. […] (C) A549 cells were treated with cisplatin (40 μM) in the absence or presence of nicotine (1 μM) for various times as indicated. Cell viability was analyzed for Annexin-V and PI binding by flow cytometry. […] Cells were metabolically labeled with ^32P-orthophosphoric acid and treated with nicotine for 60 min. Phosphorylated GFP-tagged BAX was analyzed by autoradiography. […] After 48 h, cells were treated with cisplatin (Cis) in the absence or presence of nicotine for 24 h. Cell viability was analyzed as in (C).
(§2) To test whether BAX phosphorylation occurs in human lung cancer cells, A549 cells were metabolically labeled and treated with nicotine (1 μM) for 60 min. […] To test whether nicotine induces BAX phosphorylation at ser184, WT, S184A or S184E cDNA in the pcDNA3 mammalian expression vector was transfected into H157 cells.

BAX = biological target: T1, BAX (Homo sapiens, UniProt Q07812); experiment: BAX phosphorylation in 32P-labeled A549 cells (autoradiography); assay type: cell-based; conditions: nicotine 1 μM, 60 min
T1 construct: A549 cells expressing endogenous BAX were metabolically labeled; endogenous in cells; host or cells: A549 cells
T1 sequence (Q07812 whole entry): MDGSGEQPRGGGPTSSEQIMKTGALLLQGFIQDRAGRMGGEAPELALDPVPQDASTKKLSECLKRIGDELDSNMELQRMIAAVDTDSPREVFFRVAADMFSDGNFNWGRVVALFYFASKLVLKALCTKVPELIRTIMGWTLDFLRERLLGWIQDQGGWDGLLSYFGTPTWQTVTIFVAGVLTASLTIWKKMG
Description: as §1, §2

[7] = A549 cells, 48 h, SRB assay, read-out: IC50

## NCCOc1ccccc1C=C1c2ccccc2-c2ccc([N+](=O)[O-])cc21 [CYD-2-11, 2-[2-(2-Nitro-fluoren-9-ylidenemethyl)-phenoxy]-ethylamine]
[1]; [7]
  IC50: 1.93 µM

## O=[N+]([O-])c1ccc2c(c1)C(=Cc1ccccc1OC1CCNCC1)c1ccccc1-2 [CYD-2-13, 4-[2-(2-Nitro-fluoren-9-ylidenemethyl)-phenoxy]-piperidine]
[1]; [7]
  IC50: 5.91 µM

## CC(=O)N1CCN(CCOc2ccccc2C=C2c3ccccc3-c3ccc([N+](=O)[O-])cc32)CC1 [CYD-2-17, 1-(4-{2-[2-(2-Nitro-fluoren-9-ylidenemethyl)-phenoxy]-ethyl}-piperazin-1-yl)-ethanone]
[1]; [7]
  IC50: 5.08 µM

## NCCOc1ncccc1C=C1c2ccccc2-c2ccc([N+](=O)[O-])cc21 [CYD-4-61, 2-[3-(2-Nitro-fluoren-9-ylidenemethyl)-pyridin-2-yloxy]-ethylamine]
[1]; A549, 48 h
  IC50: 0.026 µM

## O=[N+]([O-])c1ccc2c(c1)C(=Cc1ccccc1O)c1ccccc1-2 [SMBA1]
[2]
  apoptosis in tumor tissues (TUNEL): resulted in apoptosis in tumor tissues
A549 cells [3]; combination with cisplatin
  apoptotic cell death in combination with cisplatin: enhances apoptotic cell death
[4]; 25, 50 or 75 mg/kg i.p. q.d. for two weeks
  tolerability of treatment doses: well tolerated
[4]; 25, 50 or 75 mg/kg i.p. q.d. for two weeks, preliminary results
  effect on established tumor xenografts (tumor volume): significant regression of established lung cancer xenografts
[4]; doses of 50-75 mg/kg
  toxicities on liver, kidney and heart: well tolerated without significant toxicities on liver, kidney and heart
[5]
  apoptotic effect on normal cells compared to H1299 or A549 cells: significantly less apoptotic effect
H1299 cells
  apoptotic effect: potent apoptotic effect
A549 cells [6]
  apoptotic effect: potent apoptotic effect

## CN1CCCC1c1cccnc1 (stereo not drawn) [nicotine]
BAX Ser184
  phosphorylation of WT and mutant BAX: induces phosphorylation of WT but not S184A or S184E mutant BAX
BAX
  BAX phosphorylation: potently stimulates serine phosphorylation of BAX
A549 cells [3]; cisplatin 40 μM, nicotine 1 μM
  survival of A549 cells following cisplatin treatment: significantly prolongs survival of A549 cells
